Measurements published in patent US8637510B2, “Morpholinothiazoles as alpha 7 positive allosteric modulators” (Janssen Pharmaceutica NV, priority 2009, dated 2014).

How the values were obtained:
human alpha 7-wt nAChR = target: T1, human alpha 7-wt nAChR (Homo sapiens, UniProt P36544); experiment: Ca2+ flux imaging (FDSS) (Protocol B); format: cell-based; settings: for Emax: efficacy of 100 μM choline defined as 100% in the absence of a PAM, read-out: a7-PAM-G_[33]_Eff_Curve_FI % Efficacy; for EC50: potentiation of 100 μM choline, compounds 0.01 μM to 30 μM, read-out: a7-PAM-G_[33]_pEC50 pEC50 (converted)
T1 construct: expressed in transfected cells
How it was run: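 Fluo-4AM-loaded cells expressing human α7-wt nAChR, in HBSS with 10 mM HEPES, 5 mM CaCl2, 0.1% BSA, received compound (0.01–30 μM), typically 10 min before 100 μM choline, with calcium flux read in real time. Potentiation is relative to choline alone (100%); EC50 from sigmoidal curves.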

T1 sequence (P36544 23-502): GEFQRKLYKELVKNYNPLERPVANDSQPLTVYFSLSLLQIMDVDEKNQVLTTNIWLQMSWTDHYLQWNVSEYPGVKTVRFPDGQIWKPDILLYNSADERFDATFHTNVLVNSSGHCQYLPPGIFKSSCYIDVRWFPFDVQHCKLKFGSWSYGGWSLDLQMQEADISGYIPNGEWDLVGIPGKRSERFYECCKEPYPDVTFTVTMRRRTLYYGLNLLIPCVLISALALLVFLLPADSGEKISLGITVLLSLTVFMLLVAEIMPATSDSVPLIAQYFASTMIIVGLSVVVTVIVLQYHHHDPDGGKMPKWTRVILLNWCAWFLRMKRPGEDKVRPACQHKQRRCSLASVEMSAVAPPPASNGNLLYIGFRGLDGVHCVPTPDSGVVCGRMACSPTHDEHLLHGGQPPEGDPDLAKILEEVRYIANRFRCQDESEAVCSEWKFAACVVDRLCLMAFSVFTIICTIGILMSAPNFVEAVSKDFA

Row | SMILES | Emax (human alpha 7-wt nAChR) | EC50 (human alpha 7-wt nAChR) | melting point
1 | CC(C)CC(=O)NCc1nc(N2C[C@@H](C)O[C@@H](C)C2)sc1-c1ccncc1 [Compound 103, N-[[2-[(2R,6S)-2,6-dimethyl-4-morpholinyl]-5-(4-pyridinyl)-4-thiazolyl]methyl]-3-methyl-butanamide] |  | 1.29 µM | 173 °C
2 | O=C(CC1CC1)NCc1nc(N2CCOCC2)sc1-c1ccncc1 [Compound 112, N-[[2-(4-morpholinyl)-5-(4-pyridinyl)-4-thiazolyl]methyl]-cyclopropaneacetamide] | 525% |  | 135 °C
3 | Cc1nocc1C(=O)NCc1nc(N2CCOCC2)sc1-c1ccncc1 [Compound 114, 3-methyl-N-[[2-(4-morpholinyl)-5-(4-pyridinyl)-4-thiazolyl]methyl]-4-isoxazolecarboxamide] | 313% |  | 234 °C
4 | O=C(NCc1nc(N2CCOCC2)sc1-c1ccncc1)C1CC1 [Compound 116, N-[[2-(4-morpholinyl)-5-(4-pyridinyl)-4-thiazolyl]methyl]-cyclopropanecarboxamide] | 259% |  | 189 °C
5 | Cc1ccc(-c2sc(N3C[C@@H](C)O[C@@H](C)C3)nc2CNC(=O)c2conc2C)cn1 [Compound 117, N-[[2-[(2R,6S)-2,6-dimethyl-4-morpholinyl]-5-(6-methyl-3-pyridinyl)-4-thiazolyl]methyl]-3-methyl-4-isoxazolecarboxamide] | 665% |  | 129 °C
6 | Cc1ccc(-c2sc(N3C[C@@H](C)O[C@@H](C)C3)nc2CNC(=O)c2ccccc2Cl)cn1 [Compound 121, 2-chloro-N-[[2-[(2R,6S)-2,6-dimethyl-4-morpholinyl]-5-(6-methyl-3-pyridinyl)-4-thiazolyl]methyl]-benzamide] | 356% | 2.04 µM | 152 °C
7 | Cc1ccc(-c2sc(N3C[C@@H](C)O[C@@H](C)C3)nc2CNC(=O)c2cccc(Cl)c2)cn1 [Compound 122, 3-chloro-N-[[2-[(2R,6S)-2,6-dimethyl-4-morpholinyl]-5-(6-methyl-3-pyridinyl)-4-thiazolyl]methyl]-benzamide] | 473% | 1 µM | 167 °C
8 | Cc1ccc(-c2sc(N3C[C@@H](C)O[C@@H](C)C3)nc2CNC(=O)c2ccc(Cl)cc2)cn1 [Compound 123, 4-chloro-N-[[2-[(2R,6S)-2,6-dimethyl-4-morpholinyl]-5-(6-methyl-3-pyridinyl)-4-thiazolyl]methyl]-benzamide] | 636% | 0.389 µM | 208 °C
9 | Cc1ccc(-c2sc(N3C[C@@H](C)O[C@@H](C)C3)nc2CNC(=O)c2ccc(F)cc2)cn1 [Compound 126, N-[[2-[(2R,6S)-2,6-dimethyl-4-morpholinyl]-5-(6-methyl-3-pyridinyl)-4-thiazolyl]methyl]-4-fluoro-benzamide] | 655% | 1.66 µM | 195 °C
10 | Cc1cc(-c2sc(N3C[C@@H](C)O[C@@H](C)C3)nc2CNC(=O)c2oc(C)nc2C)cc(C)n1 [Compound 159, N-[[2-[(2R,6S)-2,6-dimethyl-4-morpholinyl]-5-(2,6-dimethyl-4-pyridinyl)-4-thiazolyl]methyl]-2,4-dimethyl-5-oxazolecarboxamide] | 704% | 9.77 µM | 193 °C
11 | Cc1cc(-c2sc(N3C[C@@H](C)O[C@@H](C)C3)nc2CNC(=O)c2c(C)noc2C(F)(F)F)cc(C)n1 [Compound 163, N-[[2-[(2R,6S)-2,6-dimethyl-4-morpholinyl]-5-(2,6-dimethyl-4-pyridinyl)-4-thiazolyl]methyl]-3-methyl-5-(trifluoromethyl)-4-isoxazolecarboxamide] | 142% |  | 176 °C
12 | Cc1cc(-c2sc(N3C[C@@H](C)O[C@@H](C)C3)nc2CNC(=O)c2csc(C)c2C)cc(C)n1 [Compound 164, N-[[2-[(2R,6S)-2,6-dimethyl-4-morpholinyl]-5-(2,6-dimethyl-4-pyridinyl)-4-thiazolyl]methyl]-4,5-dimethyl-3-thiophenecarboxamide] |  | 0.166 µM | 200 °C
13 | Cc1cc(-c2sc(N3C[C@@H](C)O[C@@H](C)C3)nc2CNC(=O)c2nn(C)cc2C)cc(C)n1 [Compound 172, N-[[2-[(2R,6S)-2,6-dimethyl-4-morpholinyl]-5-(2,6-dimethyl-4-pyridinyl)-4-thiazolyl]methyl]-1,4-dimethyl-1H-pyrazole-3-carboxamide] | 292% | 2.63 µM | 165 °C
14 | Cc1cc(-c2sc(N3C[C@@H](C)O[C@@H](C)C3)nc2CNC(=O)c2nocc2C)cc(C)n1 [Compound 174, N-[[2-[(2R,6S)-2,6-dimethyl-4-morpholinyl]-5-(2,6-dimethyl-4-pyridinyl)-4-thiazolyl]methyl]-4-methyl-3-isoxazolecarboxamide] | 956% | 0.537 µM | 145 °C

Second part, the molecule after the results:

Row | Emax (human alpha 7-wt nAChR) | EC50 (human alpha 7-wt nAChR) | melting point | SMILES
15 | 982% | 0.347 µM | 161 °C | Cc1cc(F)ccc1C(=O)NCc1nc(N2C[C@@H](C)O[C@@H](C)C2)sc1-c1ccncc1 [Compound 102, N-[[2-[(2R,6S)-2,6-dimethyl-4-morpholinyl]-5-(4-pyridinyl)-4-thiazolyl]methyl]-4-fluoro-2-methyl-benzamide]
16 | 812% |  | 191 °C | Cc1cc(C(=O)NCc2nc(N3CCOCC3)sc2-c2ccncc2)no1 [Compound 111, 5-methyl-N-[[2-(4-morpholinyl)-5-(4-pyridinyl)-4-thiazolyl]methyl]-3-isoxazolecarboxamide]
17 | 730% | 2.75 µM | 191 °C | Cc1cc(F)ccc1C(=O)NCc1nc(N2CCOCC2)sc1-c1ccncc1 [Compound 113, 4-fluoro-2-methyl-N-[[2-(4-morpholinyl)-5-(4-pyridinyl)-4-thiazolyl]methyl]-benzamide]
18 | 302% | 4.27 µM | 139 °C | Cc1ccc(-c2sc(N3C[C@@H](C)O[C@@H](C)C3)nc2CNC(=O)CC2CC2)cn1 [Compound 119, N-[[2-[(2R,6S)-2,6-dimethyl-4-morpholinyl]-5-(6-methyl-3-pyridinyl)-4-thiazolyl]methyl]-cyclopropaneacetamide]
19 | 567% |  | 139 °C | Cc1ccc(-c2sc(N3C[C@@H](C)O[C@@H](C)C3)nc2CNC(=O)C2CCC2)cn1 [Compound 120, N-[[2-[(2R,6S)-2,6-dimethyl-4-morpholinyl]-5-(6-methyl-3-pyridinyl)-4-thiazolyl]methyl]-cyclobutanecarboxamide]
20 | 428% | 0.851 µM | 147 °C | Cc1ccc(-c2sc(N3C[C@@H](C)O[C@@H](C)C3)nc2CNC(=O)c2cccc(F)c2)cn1 [Compound 125, N-[[2-[(2R,6S)-2,6-dimethyl-4-morpholinyl]-5-(6-methyl-3-pyridinyl)-4-thiazolyl]methyl]-3-fluoro-benzamide]
21 |  | 0.977 µM | 131 °C | Cc1cc(-c2sc(N3C[C@@H](C)O[C@@H](C)C3)nc2CNC(=O)c2cc(C)oc2C)cc(C)n1 [Compound 146, N-[[2-[(2R,6S)-2,6-dimethyl-4-morpholinyl]-5-(2,6-dimethyl-4-pyridinyl)-4-thiazolyl]methyl]-2,5-dimethyl-3-furancarboxamide]
22 |  | 0.912 µM | 149 °C | Cc1cc(-c2sc(N3C[C@@H](C)O[C@@H](C)C3)nc2CNC(=O)c2occc2C)cc(C)n1 [Compound 147, N-[[2-[(2R,6S)-2,6-dimethyl-4-morpholinyl]-5-(2,6-dimethyl-4-pyridinyl)-4-thiazolyl]methyl]-3-methyl-2-furancarboxamide]
23 |  | 1.62 µM | 164 °C | Cc1cc(-c2sc(N3C[C@@H](C)O[C@@H](C)C3)nc2CNC(=O)c2ccno2)cc(C)n1 [Compound 149, N-[[2-[(2R,6S)-2,6-dimethyl-4-morpholinyl]-5-(2,6-dimethyl-4-pyridinyl)-4-thiazolyl]methyl]-5-isoxazolecarboxamide]
24 | 894% | 0.427 µM | 184 °C | Cc1cc(-c2sc(N3C[C@@H](C)O[C@@H](C)C3)nc2CNC(=O)c2sccc2C)cc(C)n1 [Compound 150, N-[[2-[(2R,6S)-2,6-dimethyl-4-morpholinyl]-5-(2,6-dimethyl-4-pyridinyl)-4-thiazolyl]methyl]-3-methyl-2-thiophenecarboxamide]
25 |  | 8.13 µM | 169 °C | Cc1cc(-c2sc(N3C[C@@H](C)O[C@@H](C)C3)nc2CNC(=O)c2cnn(C)c2C)cc(C)n1 [Compound 160, N-[[2-[(2R,6S)-2,6-dimethyl-4-morpholinyl]-5-(2,6-dimethyl-4-pyridinyl)-4-thiazolyl]methyl]-1,5-dimethyl-1H-pyrazole-4-carboxamide]
26 | 509% | 5.13 µM | 201 °C | Cc1cc(-c2sc(N3C[C@@H](C)O[C@@H](C)C3)nc2CNC(=O)c2ncoc2C)cc(C)n1 [Compound 161, N-[[2-[(2R,6S)-2,6-dimethyl-4-morpholinyl]-5-(2,6-dimethyl-4-pyridinyl)-4-thiazolyl]methyl]-5-methyl-4-oxazolecarboxamide]
27 | 669% | 1.62 µM | 192 °C | Cc1cc(-c2sc(N3C[C@@H](C)O[C@@H](C)C3)nc2CNC(=O)c2onc(C)c2C)cc(C)n1 [Compound 171, N-[[2-[(2R,6S)-2,6-dimethyl-4-morpholinyl]-5-(2,6-dimethyl-4-pyridinyl)-4-thiazolyl]methyl]-3,4-dimethyl-5-isoxazolecarboxamide]
